Experimental data reported in the supplement of paper PMC10307832.

Experiments:
Experiment in all cases: relative viability (nuclei count vs DMSO), 5 days (fraction); higher = more cells survive
[1] = compound: CC1=CC(=CC=C1)NC2=NC(=CS2)C3=CC=NC=C3 + Cc1cc(Nc2cc(N3CCN(C)CC3)nc(Sc3ccc(NC(=O)C4CC4)cc3)n2)n[nH]1 [Tozasertib] (partner 0.1 µM)
Summary of the method: (§1)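 Values are medians from duplicate plates. Each reflects relative viability, defined as the nuclei count of treated wells over that of vehicle wells. Lung cancer cell lines in 1536-well plates were pin-tool dosed one day after seeding with one drug alone or with a fixed anchor-drug dose plus five library-drug doses (not always all listed) in √10 steps, then fixed, stained and imaged at 4× after 5 days.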

[2] = compound: CC1=CC(=CC=C1)NC2=NC(=CS2)C3=CC=NC=C3 + COc1cccc2cc(-c3nc([C@H]4CC[C@H](C(=O)O)CC4)n4ncnc(N)c34)[nH]c12 [OSI-027] (partner 0.5 µM)
Summary of the method: as §1

Masitinib + Alpelisib = compound: Cc1ccc(NC(=O)c2ccc(CN3CCN(C)CC3)cc2)cc1Nc1nc(-c2cccnc2)cs1 [Masitinib] + Cc1nc(NC(=O)N2CCC[C@H]2C(N)=O)sc1-c1ccnc(C(C)(C)C(F)(F)F)c1 [Alpelisib] (partner 2 µM)
Summary of the method: as §1

[3] = compound: CC1=CC(=CC=C1)NC2=NC(=CS2)C3=CC=NC=C3 + NC(=O)Nc1cc(-c2cccc(F)c2)sc1C(=O)N[C@H]1CCCNC1 [AZD7762] (partner 0.2 µM)
Summary of the method: as §1

| Cell Line | relative viability ([1]; first compound 0.08 µM) | relative viability ([1]; first compound 0.8 µM) | relative viability ([1]; first compound 2.53 µM) | relative viability ([1]; first compound 8 µM) | relative viability ([2]; first compound 0.08 µM) | relative viability ([2]; first compound 0.8 µM) | relative viability ([2]; first compound 2.53 µM) | relative viability ([2]; first compound 8 µM) | relative viability (Masitinib + Alpelisib; first compound 0.01 µM) | relative viability (Masitinib + Alpelisib; first compound 0.03162 µM) | relative viability (Masitinib + Alpelisib; first compound 0.1 µM) | relative viability (Masitinib + Alpelisib; first compound 0.3162 µM) | relative viability (Masitinib + Alpelisib; first compound 1 µM) | relative viability ([3]; first compound 0.08 µM) | relative viability ([3]; first compound 0.253 µM) | relative viability ([3]; first compound 0.8 µM) | relative viability ([3]; first compound 2.53 µM) | relative viability ([3]; first compound 8 µM) | relative viability ([1]; first compound 0.253 µM) | relative viability ([2]; first compound 0.253 µM) |
| --- | --- | --- | --- | --- | --- | --- | --- | --- | --- | --- | --- | --- | --- | --- | --- | --- | --- | --- | --- | --- |
| LC-2-ad | 0.448 | 0.398 | 0.371 | 0.384 | 0.785 | 0.74 | 0.79 | 0.728 | 0.866 | 0.822 | 0.843 | 0.815 | 0.844 | 0.823 | 0.845 | 0.911 | 0.835 | 0.821 | – | – |
| NCI-H1437 | 0.417 | 0.448 | 0.448 | 0.407 | 1.04 | 1.08 | 1.04 | 0.714 | 0.918 | 0.979 | 1.01 | 1.08 | 0.962 | 1.07 | 1.11 | 1.1 | 1.12 | 1.11 | 0.465 | 1.02 |
| H3255 | 0.627 | 0.614 | 0.599 | 0.6 | 0.527 | 0.726 | 0.494 | 0.701 | – | 0.84 | 0.766 | 0.49 | 0.675 | 0.936 | 0.902 | 0.866 | 0.665 | 0.765 | 0.624 | 0.615 |
| NCI-H1755 | 0.539 | 0.47 | 0.539 | 0.394 | 0.485 | 0.58 | 0.653 | 0.588 | – | 0.847 | 1.01 | 0.972 | 0.833 | 0.491 | 0.418 | 0.46 | 0.486 | 0.376 | 0.608 | 0.7 |
| HOP-62 | 0.378 | 0.363 | 0.41 | 0.421 | 0.714 | 0.849 | 0.786 | 0.729 | 0.777 | 1.09 | 1.18 | 1.07 | 0.83 | 0.629 | 0.598 | 0.619 | 0.861 | 0.578 | 0.381 | 0.774 |
| LOU-NH91 | 0.607 | 0.566 | 0.681 | 0.58 | 0.552 | 0.651 | 0.648 | 0.711 | 0.711 | 0.662 | 0.819 | 0.683 | 0.713 | 0.615 | 0.631 | 0.714 | 0.761 | 0.468 | 0.709 | 0.642 |
| NCI-H23 | 0.404 | 0.296 | 0.253 | 0.418 | 0.48 | 0.654 | 0.526 | 0.555 | 0.639 | 0.49 | 0.659 | 0.579 | 0.669 | 0.283 | 0.276 | 0.213 | 0.244 | 0.223 | 0.324 | 0.485 |
| PC-3 [JPC-3] | 0.837 | 0.789 | 0.771 | 0.61 | 0.651 | 0.599 | 0.607 | 0.594 | 1.01 | 1.03 | 0.978 | 1.03 | 1.01 | 0.711 | – | 1.11 | 0.712 | 0.663 | 0.803 | 0.659 |
| NCI-H1666 | 0.588 | 0.503 | 0.582 | 0.436 | 0.582 | 0.676 | 0.501 | 0.507 | 0.92 | 1.05 | 0.943 | 0.706 | 0.99 | 0.766 | 0.715 | 0.607 | 0.548 | 0.68 | 0.56 | 0.598 |
| NCI-H727 | – | 0.539 | 0.58 | 0.458 | – | 0.597 | 0.618 | 0.568 | 0.652 | 0.657 | 0.517 | 0.603 | 0.74 | 0.669 | – | 0.745 | – | 0.507 | 0.582 | 0.412 |
| HARA | 0.112 | 0.104 | 0.104 | 0.133 | 0.33 | 0.328 | 0.48 | 0.473 | 0.798 | 0.621 | 0.809 | 0.727 | 0.822 | 0.306 | 0.466 | 0.317 | 0.356 | 0.273 | 0.101 | 0.496 |
| NCI-H647 | 0.266 | 0.286 | 0.316 | 0.222 | 0.531 | 0.659 | 0.585 | 0.644 | 1.08 | 1.26 | 1.19 | 1.28 | 1.1 | 0.379 | 0.372 | 0.558 | 0.382 | 0.414 | 0.29 | 0.471 |
| NCI-H2347 | 0.51 | – | 0.489 | 0.489 | 0.362 | – | 0.419 | 0.411 | 0.981 | 1.14 | 1.01 | 1.13 | 1.05 | 0.613 | 0.731 | 0.699 | 0.778 | 0.72 | 0.605 | 0.328 |
| LCLC-97TM1 | 0.2 | 0.246 | 0.177 | 0.325 | 0.413 | 0.546 | 0.513 | 0.692 | 0.25 | 0.241 | 0.275 | 0.402 | 0.27 | 0.338 | 0.292 | 0.379 | 0.246 | 0.376 | 0.236 | 0.43 |
| EPLC-272H | 0.294 | 0.248 | 0.313 | 0.51 | 0.243 | 0.258 | 0.27 | 0.281 | 0.999 | 0.902 | 1.12 | 1.07 | 0.898 | 0.201 | 0.153 | 0.445 | – | 0.215 | 0.206 | 0.274 |
| NCI-H1975 | 0.693 | 0.281 | 0.181 | 0.179 | 0.699 | 0.628 | 0.483 | 0.267 | 0.62 | 0.622 | 0.684 | 0.602 | 0.604 | 0.579 | 0.532 | 0.591 | 0.462 | 0.439 | 0.654 | 0.653 |
| NCI-H3122 | 0.386 | 0.47 | 0.384 | 0.457 | 0.824 | 1.12 | 1.09 | 0.969 | 0.87 | 0.758 | 0.785 | 0.899 | 0.821 | 0.946 | 1.01 | 1.04 | 1.04 | 0.96 | 0.455 | 1.03 |
